Non-standard residues stand in square brackets, D forms with d. Residues, ends and D or L forms follow the SMILES beside them. ξ: configuration not given here. *: point of attachment. ξPhe(4-NO2) = NC(Cc1ccc([N+](=O)[O-])cc1)C(=O)O; Boc = CC(C)(C)OC(=O)*; OBn = c1ccc(CO*)cc1

Usually melting point stands for the temperature of the solid-liquid transition. `CC(C)CCC(O)C(CC1CCCCC1)NC(=O)C(Cc1c[nH]cn1)N(C)C(=O)C(Cc1ccccc1)NC(=O)N(C)CCN(C)C(=O)N1CCOCC1` (stereo not given) registered a melting point of 89 to 92 °C.
As to `CC(=O)Nc1ccc(S(=O)(=O)Nc2onc(C)c2Br)cc1`, the melting point is 208 to 210 °C.
On to `Oc1ncnc2c1c(Nc1cccc(Cl)c1)nn2Cc1ccccc1`, for which the melting point is 148 to 150 °C.
For the compound `CCCC(=O)NCCCc1cccc(OCC2CC2)c1`, the melting point lay within 36 to 37 °C.
The compound `CCOc1ccc(-c2nc(-c3cccc(C(O)CO)n3)cs2)cc1OCC` (stereo not given) returned a melting point of 112 °C.
Consider `CC(C)(CO)Oc1ccc(-c2ccc(N3CCCCC3)cc2)cc1`, for which the melting point lay within 158 to 160 °C.
Compound `COc1cc2c(cc1Nc1ncc(Cl)c(N[C@H]3[C@@H](C(N)=O)[C@@H]4C=C[C@H]3C4)n1)NCCN(CC1CC1)C2` had a melting point of 149 to 151 °C.
Then `O=C(NC(=O)c1ccc2ncccc2c1)NC1CCN(Cc2ccc3ncccc3c2)CC1`, with 202 to 204 °C.
Then `O=C(Nc1cc(-n2cccn2)nc(-c2ccco2)n1)OCC1CCCC1`, with 60 to 61.3 °C.
`C/C(=C\C(=O)NCc1cccnc1)c1ccc(OCC(=O)O)cc1`: the melting point was 228 to 229 °C.
`CNC(C)c1ccc(C2CCC(N(C)C(=O)c3ccc(Cl)cc3)CC2)cc1` (stereo not given) yielded a melting point of 153 to 155 °C.
Take `CC1C(Cc2ccccc2)C(=O)N(Cc2ccccc2)c2ccccc2N1C(=O)CN1C(=O)c2ccccc2C1=O` (stereo not given): the melting point lay within 213 to 214 °C.
In turn, `CN(O)C(=O)NCCCCCOc1ccc(-c2ccccc2)cc1` displayed a melting point of 153 to 154 °C.
With `O=C1c2ccc(O)cc2OCN1CCO[N+](=O)[O-]`, the melting point was 131 to 133 °C.
As for `CCCN1CC=C(c2ccc(Cl)cc2)C(C(=O)OCc2ccccc2)C1` (stereo not given), the melting point lay in the range of 75 to 76.5 °C.
Consider `O=Cc1cccc(COc2cccc(-c3ccsc3)c2)c1`, for which the melting point was 62 to 63 °C.
In the case of `CS(=O)(=O)c1ccc2[nH]cc(CCN)c2c1` it was 134 to 138 °C; in that of `C=CCn1nc(-c2sc(C(=O)NCc3ccccn3)nc2-c2ccccc2)ccc1=O`, 117 to 118 °C.
In turn, `CC(C)(C)C(=O)C(C(CC#N)c1ccccc1)n1ccnc1` (stereo not given) returned a melting point of 108 to 111 °C.
In the case of `N#Cc1cccc(C2=Nc3cc(N4CCC5(CC4)OCCO5)c(-c4ccccc4F)cc3NC(=O)C2)c1` it was 253 °C; in that of `CCCCc1ncc(/C=C(\Cc2cccs2)C(=O)O)n1Cc1ccccc1C#N`, 210 to 212 °C.
`Clc1cccc(N2CCN(CCCOc3ccc4scnc4c3)CC2)c1Cl` yielded a melting point of 127 to 129 °C.
The compound `O=[N+]([O-])c1ccc(SSn2nccn2)c(C(Cl)(Cl)Cl)c1` registered a melting point of 189 °C.
Then `Cc1cc(NC(=O)c2cnccn2)nc(C)c1[N+](=O)[O-]`, with 158 °C; and `O=c1oc2c(c(O)c1-c1ccccc1)CCCC2`, with 168 °C; and `C#CCOCc1c(C)nc2c(OCc3ccccc3C#N)cccn12`, with 144 °C.
Turning to `Cc1sc(-c2ccccc2)nc1COc1ccc(CO)cn1`, the melting point lay in the range of 70 to 71 °C.
Compound `O=C(O)COCCc1ccccc1` came in with a melting point of 46 to 48 °C.
In the case of `CN(C)C(=O)c1cc(O)c2nc(C(F)(F)F)n(C)c2c1` it was 243 to 244 °C.
The compound `CCCn1c(=O)n2c(=O)[nH]nc2c2c1ncn2C` returned a melting point of 299 to 301 °C.
As for `COc1ccc(CC(C(=O)n2ccnc2)C(C)(C)C)cc1` (stereo not given), the melting point was 89.5 to 91 °C.
On to `COC(=O)c1sc(OC)c(C)c1O`, for which the melting point lay in the range of 63 to 65 °C.
The compound `Cc1ccc(S(=O)(=O)N=c2[nH]c3ccccc3s2)cc1` displayed a melting point of 246 to 249 °C.
The compound `COC(=O)c1cc2cc(S(N)(=O)=O)sc2s1` came in with a melting point of 219 to 220 °C.
`Cc1c(OCc2nnn[nH]2)cc2c(c1Cl)C(=O)C1(CCCC1)C2=O` showed a melting point of 211 °C.
Regarding `Cc1cccc2c(-c3ccc(C(F)(F)F)cc3)onc12`, the melting point lay in the range of 118 to 119 °C.
The compound `COC(=O)c1cccc(O)c1C` had a melting point of 74 to 75 °C.
`Cc1ccc2nc(SCCN(C)C)[nH]c2c1`: the melting point is 103 °C.
As to `COc1ccc(NCCNc2ccc([N+](=O)[O-])cc2)cc1`, the melting point is 150 °C.
Regarding `O=C(C#Cc1ccc(CN2CCC(N3CCCC3)CC2)cc1)Nc1ccc(-c2ccc(Cl)cc2)cc1`, the melting point lay in the range of 191 to 192 °C.
`CC(C)(C)OC(=O)N1CCN(c2cccc([N+](=O)[O-])c2)CC1` showed a melting point of 82 to 92 °C.
`Cc1cccc(-c2cc(O)c(SCc3ccccc3)c(=O)o2)c1` came in with a melting point of 137 to 138 °C.
`COC(C)C(O)(Cc1ccc(Cl)cc1Cl)c1cccnc1` (stereo not given) registered a melting point of 94 to 95 °C.
Then `COc1cc(CBr)c(OC)c(CCc2cc(OC)cc(CBr)c2OC)c1`, with 158 to 161 °C; and `CCCC[C@H](NC(=O)[C@H](Cc1ccccc1)NC(=O)OCc1ccccc1)C(=O)CSCc1ccco1`, with 123 to 124 °C.
In the case of `CC(=O)NC[C@H]1CN(c2ccc(I)c(F)c2)C(=O)O1`, the melting point stood at 186 °C.
For `COC(=O)C(O)=Cc1ccc(OCc2ccc(F)cc2)cn1`, the melting point lay in the range of 131 to 132 °C.
On to `NNC(=O)c1ccc(-c2csc(N=C(N)N)n2)o1`, for which the melting point lay in the range of 279 to 280 °C.
Then `Cn1c(=O)c(-c2ccc(Cl)cc2Cl)cc2c3cc(-c4ccno4)ccc3n(C)c21`, with 241 to 242 °C; and `CC(CSC(=S)c1cccs1)C(=O)N1CCCC1C(=O)O` (stereo not given), with 149 to 150 °C; and `C=C1CCc2c(c3ccccc3n2C)C1=O`, with 127 to 129 °C.
As for `CCn1ncc2c(NC3CCc4ccccc43)c3ccccc3nc21` (stereo not given), the melting point lay in the range of 233 to 235 °C.
On to `CC(=O)C(=O)NC(=O)[C@@H](N)Cc1ccccc1`, for which the melting point lay in the range of 138 to 140 °C.
As to `CC(C)c1ccc(C(=O)C2=C(O)C(=O)N(c3ncc(S(=O)(=O)c4ccc([N+](=O)[O-])cc4)s3)C2c2ccc(OC(F)(F)F)cc2)cc1` (stereo not given), the melting point fell in the range of 276 to 278 °C.
With `COc1ccc2c(c1)CN(CCc1ccc([N+](=O)[O-])cc1)CC2`, the melting point was in the range of 92 to 94 °C.
Then `COc1cc(C=C2CCN(C(=O)NO)C2=O)cc(OC)c1O`, with 203 to 204 °C; and `COC(=O)c1ccc(C(=O)C2C(=O)N(C(N)=O)c3ccc(Cl)cc32)s1` (stereo not given), with 219 to 221 °C; and `CCCCCCCCCCCCn1nnc(C(=O)O)n1`, with 122 to 124 °C.
As to `CCN(CC)CCn1nc2c3c(c(CN)ccc31)Sc1ccc(OC)cc1-2`, the melting point is 74 to 76 °C.
`C[C@@H](SCCCO)[C@](O)(Cn1cncn1)c1ccc(F)cc1F` (relative stereo) had a melting point of 119 to 120 °C.
The compound `O=C(NCCN1CCC2(CC1)C(=O)NCN2c1ccccc1)c1ccc(Cl)cc1` yielded a melting point of 201 °C.
`OC1CSC(Oc2ccncc2)C(O)C1O` (stereo not given) came in with a melting point of 165 to 168 °C.
For the compound `Cn1nnnc1-c1cn(C)c2ccccc2c1=O`, the melting point was 220 to 222 °C.
As to `C/C=C/OC(=O)/C=C/N(C)C`, the melting point fell in the range of 48 to 48.5 °C.
Then `COc1ccnc(NC(N)=S)c1`, with 214 to 217 °C.
`CCc1cnc(SC(C)(C)C)c(C#N)c1` returned a melting point of 63 to 66 °C.
The compound `CCn1cnc2c(Nc3cccc(C#N)c3)nc(Cl)nc21` showed a melting point of 189 °C.
In the case of `Cn1c(CBr)c(C(=O)c2ccccc2)c(=O)n(C)c1=O` it was 164 to 167 °C; in that of `Oc1cccc2c1CCC=C2`, 67 to 68 °C; in that of `COc1ccc2c(c1)-c1c(OC)ccc3c1C(C2=O)N(C)CC3` (stereo not given), 162 to 164 °C.
Take `Cc1cc2c(cc1Cl)CCN2C(=O)Nc1cccnc1`: the melting point fell in the range of 217 to 218 °C.
`CC(C)(C)OC(=O)NC(Cc1ccc([N+](=O)[O-])cc1)C(=O)NCC(=O)OCc1ccccc1` (stereo not given) (Boc-[ξPhe(4-NO2)]-Gly-OBn) showed a melting point of 115 to 118 °C.
As to `Nc1nc2ccc(C(O)C(CNC(=O)c3ccccc3)N3CCC(Cc4ccccc4)CC3)cc2s1` (stereo not given), the melting point was 160 to 162 °C.
Then `Cc1ccc(C(O)c2ccc3noc(-c4cccc(Cl)c4)c3c2)cc1` (stereo not given), with 225 °C; and `O=C(O)Cc1cc(OCc2ccc3ccccc3n2)ccc1Nc1c(Cl)cccc1Cl`, with 162 °C.
`CCCCc1cn(C)cc(-c2cccc(C(F)(F)F)c2)c1=O` came in with a melting point of 82.5 to 84 °C.
`CCCCCCCNC(=O)Nc1ccc(N(C)C)cc1C(=O)NC1CCN(C(c2ccccc2)c2ccccc2)CC1` yielded a melting point of 204 to 206 °C.
In the case of `Cc1ccc(S(=O)(=O)O[C@H](C)C(=O)N2C(=O)N(C)C[C@H]2C(=O)OCc2ccccc2)cc1` it was 153 to 155 °C; in that of `CC(=O)OCc1[nH]c2c(c1C)C(=O)C(N1CC1)=C(C)C2=O`, 210 to 212 °C; in that of `Cc1cccc(C(C)C)c1NC(=O)Nc1c(-c2ccccc2F)c2cc(Cl)ccc2oc1=O`, 217 to 218 °C.
`Cc1cc2c3c(c1)nc(N1CCN(C)CC1)n3CCC2` displayed a melting point of 164 to 165 °C.
In turn, `CC1(C)Oc2c(c(Cl)cc(Cl)c2-n2c(=O)cc(C(F)(F)F)[nH]c2=O)C1=O` showed a melting point of 308 to 320 °C.
Consider `CCOC(=O)C1=C(N(C)C)N=C(C)C(C(=O)OCC)C1c1ccccc1C` (stereo not given), for which the melting point stood at 88 °C.
On to `CCCC(=O)c1cnc2c(OCCCN(C)CCCc3ccccc3)cccc2c1Nc1ccccc1C`, for which the melting point was in the range of 79 to 81 °C.
As to `Cc1nc(=O)n(C)cc1Cl`, the melting point lay in the range of 132 to 134 °C.
In turn, `C#CC(C)(O)CCC=C(C)CCC=C(C)CCC=C(C)CCC=C(C)CCC=C(C)CCC=C(C)CCC=C(C)CCC=C(C)CCC=C(C)CCC=C(C)C` (stereo not given) displayed a melting point of 35.5 to 36.5 °C.
`Cc1ccccc1N1CCN(S(=O)(=O)c2ccc([N+](=O)[O-])cc2)CC1` displayed a melting point of 176 to 178 °C.
Then `CN1CCN(CC2CCCCN2CC(=O)N2c3ccccc3C(=O)Nc3cccnc32)CC1` (stereo not given), with 203 to 205 °C.
Consider `Cc1cc(C=O)ccc1C=O`, for which the melting point was 71 to 72 °C.
For `Cc1oc(-c2ccc(F)cc2)cc1CO`, the melting point lay in the range of 80 to 82 °C.

The record behind these values is a melting point compilation (Tetko et al.; mined from patent text by program, amines drawn as free bases though some values may be those of a salt).
